Test results as given in US12269816B2, “Benzothiophene compound, preparation method therefor and use thereof” (SICHUAN KELUN-BIOTECH BIOPHARMACEUTICAL CO., LTD., priority 2019, dated 2025).

Key:
[1] = system: STING-mediated interferon (IFN) signal reporter gene in THP1-Blue™ ISG cells; test: STING-mediated interferon (IFN) signal SEAP reporter gene assay in THP1-Blue ISG cells; type: cell-based, human; details: for EC50: Homo sapiens, 16 h incubation, SEAP reporter read at OD620nm; for Emax (OD620nm): highest OD620nm value generated by stimulation of the compound, 16 h; for agonistic effect on the STING-mediated Interferon (IFN) signal pathway: result in words
Text: In this experiment, the activity of the SEAP (secreted embryonic alkaline phosphatase) reporter gene regulated by the IFN regulatory factor (interferon regulatory factor) was detected in the THP1-Blue™ ISG cells (InvivoGen) to evaluate the agonistic effect of the compounds to be tested on the STING-mediated IFN signal pathway at the cellular level.
The THP1-Blue™ ISG cells (InvivoGen) in the logarithmic phase were centrifuged, and resuspended in a cell culture solution to a density of 2×10^6 cells/ml. The cell suspension was inoculated in a 96-well cell culture plate (Corning) at 50 μL/well. The mother liquor of the compound to be tested was gradiently diluted with a cell culture solution to obtain a 2× working concentration diluted solution (control compounds 1 and 2 were diluted at a 3-fold gradient: 200, 66.67, 22.22, 7.41, 2.47, 0.82, 0.27 and 0 μM; compounds 1, 2, 4, 6, 8, and 23 were diluted at a 8-fold gradient: 60, 7.5, 0.94, 0.12, 0.015, 0.0018, 0.00023 and 0 μM; and compounds 3 and 5 were diluted at a 10-fold gradient: 10, 1, 0.1, 0.01, 0.001, 0.0001, 0.00001 and 0 μM). The 2× working concentration diluted solution of the compound was added into a 96-well plate (50 μl of the culture solution containing 2% DMSO was added into the negative control well) at 50 μL/well. The culture plate was then placed in a cell incubator, and incubated for 16 h. After the cell incubation, 10 μL of the cell culture supernatant was transferred to a 96-well plate, and a QUANTI-Blue (InvivoGen) solution was added at 90 μL/well. The cells were incubated at 37° C. for 3 h. The absorbance at 620 nm (OD620nm) was read with a microplate reader.
In the table, EC50 refers to the concentration of a compound when ODM620nm value generated by stimulation of the compound reaches half of Emax; and Emax refers to the highest OD620nm value generated by stimulation of the compound.

[2] = system: STING and its downstream proteins TBK1 and IRF3 in Raw264.7 cells; test: Western blotting of phosphorylation of STING signal pathway proteins in mouse Raw264.7 cells; type: cell-based; details: 3 hours, protein blotting, FIGS. 6-7, result in words
Text: (§1) In this experiment, the changes in the phosphorylation levels of STING and its downstream proteins TBK1 (TANK-binding kinase 1) and IRF3 (interferon regulatory factor 3) were detected by protein blotting to evaluate the agonistic effect of the test compounds on the STING signal pathway at the cellular level.
The Raw264.7 cells in the logarithmic phase were centrifuged, and resuspended in a cell culture solution to a density of 1.6×10^6 cells/mL. The cell suspension was inoculated into a 6-well cell culture plate (Corning) at 1 mL/well. The compound to be tested was diluted with a cell culture solution to 2× working solution concentration (control compounds 1 and 2: 60 μM; compound 8: 0.6 μM, 6 μM, and 60 μM; compounds 2, 4 and 6: 6 μM, 20 μM, and 60 μM). 1 mL of the diluted solution of the compound was added into a 6-well plate (1 mL of the culture solution containing 2% DMSO was added into the negative control well). The plate was placed in a cell incubator, and incubated for 3 hours. After the incubation, the cells were collected by centrifugation, lysed with 60 μL cell lysis buffer (CST) for 30 minutes, and centrifuged at 12000 rpm for 15 minutes. The supernatant was collected to determine the protein concentration, and then an appropriate amount of 5× protein loading buffer was added. The mixture was heated at 95° C. for 10 minutes to prepare a protein electrophoresis sample. Finally, protein blotting was performed to detect the phosphorylation level of the corresponding protein. The primary antibodies used in the protein blotting were purchased from CST: STING (D2P2F) rabbit mAb, Phospho-STING (Ser365) rabbit mAb, Phospho-IRF3 (Ser396) (D601M) rabbit mAb, IRF3 (D83B9) rabbit mAb, TBK1/NAK (D1B4) rabbit mAb, Phospho-TBK1/NAK (Ser172) (D52C2) XPV rabbit mAb, GAPDH (D16H11) rabbit mAb; and the secondary antibody horseradish peroxidase-conjugated goat anti-rabbit IgG (H+L) was purchased from Zsgb-bio.

[3] = system: STING and its downstream proteins TBK1 and IRF3 in THP-1 cells; test: Western blotting of phosphorylation of STING signal pathway proteins in human THP-1 cells; type: cell-based; details: 3 hours, protein blotting, FIGS. 1-5, result in words
Text: as §1
The THP-1 cells in the logarithmic phase were centrifuged, and resuspended in a cell culture solution to a density of […]. The cell suspension was inoculated into a 12-well cell culture plate (Corning) at 0.5 mL/well. The compound to be tested was diluted with a cell culture solution to 2× working solution concentration (control compounds 1 and 2: 60 μM; compounds 1 and 3: 0.6 μM, 6 μM, and 60 μM; compounds 2, 4, 6 and 8: 6 μM, 20 μM, and 60 μM). 0.5 mL of the diluted solution of the compound was added into a 12-well plate (500 μl of the culture solution containing 2% DMSO was added into the negative control well), and the plate was incubated in a cell incubator for 3 hours. After the incubation, the cells were collected by centrifugation, lysed with 60 μL cell lysis buffer (CST) for 30 minutes, and centrifuged at 12,000 rpm for 15 minutes. The supernatant was collected to determine the protein concentration, and then an appropriate amount of 5× protein loading buffer was added. The mixture was heated at 95° C. for 10 minutes to prepare a protein electrophoresis sample. Finally protein blotting was performed to detect the phosphorylation level of the corresponding protein. The primary antibodies used in the protein blotting were purchased from CST: STING (D2P2F) rabbit mAb, Phospho-STING (Ser366) rabbit mAb, Phospho-IRF3 (Ser396) (D601M) rabbit mAb, IRF3 (D83B9) rabbit mAb, TBK1/NAK (D1B4) rabbit mAb, Phospho-TBK1/NAK (Ser172) (D52C2) XP® rabbit mAb, and GAPDH (D16H11) rabbit mAb; and the secondary antibody horseradish peroxidase-conjugated goat anti-rabbit IgG (H+L) was purchased from Zsgb-bio.

| Structure (SMILES) | EC50 [1] [nM] | Emax (OD620nm) [1] [OD620nm] | agonistic effect on the STING-mediated Interferon (IFN) signal pathway [1] | agonistic effect on the phosphorylation levels of STING, TBK1 and IRF3 [2] | agonistic effect on the phosphorylation levels of STING, TBK1 and IRF3 [3] |
| --- | --- | --- | --- | --- | --- |
| COc1cc2cc(C(=O)CCC(=O)O)sc2cc1OCCCOc1cc2sc(C(=O)N(C)CCC(=O)O)cc2cc1OC [Compound 2, 4-(6-(3-((2-((2-carboxyethyl)(methyl)carbamoyl)-5-methoxybenzo[b]thiophen-6-yl)oxy)propoxy)-5-methoxybenzo[b]thiophen-2-yl)-4-oxobutanoic acid] | 457 | 1.82 | strong agonistic effects | strong agonistic effects | strong agonistic effects |
| CCOC(=O)CCC(=O)c1cc2cc(OC)c(OCCCOc3cc4sc(C(=O)N(C)CCC(=O)OCC)cc4cc3OC)cc2s1 [Compound 1, ethyl 4-(6-(3-((2-((3-ethoxy-3-oxopropyl)(methyl)carbamoyl)-5-methoxybenzo[b]thiophen-6-yl)oxy)propoxy)-5-methoxybenzo[b]thiophen-2-yl)-4-oxobutyrate] | 0.57 | 1.54 | strong agonistic effects | – | strong agonistic effects |
